Among the data in PubChem BioAssay (NCI) are TGI and GI50 values, retold here.

Assay in all cases: NCI-60 cell line screen, 48 h
Experiment [1] has as its system SW-620 colon.
The subject of experiment [2] is MDA-MB-435.
In experiment [3] the test system is OVCAR-8 ovarian.
Experiment [4] concerns OVCAR-3 ovarian.
Experiment [5] concerns HCT-15 colon.
Experiment [6] deals with SK-MEL-28 melanoma.
In experiment [7] the test system is HS 578T breast.
Experiment [8] concerns SR leukemia.
Experiment [9] has as its system RXF 393 renal.
Experiment [10] deals with OVCAR-4 ovarian.

Structures are written as SMILES.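 Cultured in 96-well plates, cells were exposed to test compound for 48 hours across five concentrations. GI50 = concentration required for 50% inhibition of growth. TGI: total growth inhibition.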

On to `N[C@H]1CCC[C@@H](O)C1O` (some centres undefined), for which the TGI in [1], in experiment [2], in experiment [3], in experiment [4], in experiment [5] and in [6] was > 100 µM each time. The TGI in experiment [7] and in experiment [8] was > 100 µM in each case.
For `COc1ccc2nc3cc(Cl)ccc3c(Sc3ccc(N)cc3)c2c1`, the TGI in experiment [1] came to 12.8 µM; in experiment [3], 23.8 µM; in [4], 21.5 µM; in experiment [5] it was 20.1 µM; in experiment [6], 29.6 µM; in [8], 11.4 µM. The figures for the TGI in experiment [9] and in experiment [10] were 24.7 µM and 29.9 µM, respectively.
As to `CC(C)(C)OC(=O)N(CCCCN(CCCn1c2c(c3ccccc3c1=O)C(=O)c1ccccc1-2)C(=O)OC(C)(C)C)CCCn1c2c(c3ccccc3c1=O)C(=O)c1ccccc1-2`, the GI50 was 32.3 µM in [1]; 68.7 µM in experiment [2]; > 100 µM in [3]; 69.6 µM in experiment [4]; 23.4 µM in experiment [5]; > 100 µM in experiment [6]. In addition, the GI50 in experiment [7] is 13.1 µM; in [8], 0.304 µM; in [10], > 100 µM. In addition, the TGI in experiment [1], in [2], in experiment [3], in experiment [4], in [5] and in experiment [6] was > 100 µM in each case. The TGI in experiment [7] is 59.6 µM; in experiment [8], > 100 µM; in experiment [10], > 100 µM.
`COc1ccc(C2=C(OC(C)=O)c3cccn3-c3ccc(Cl)cc3S2)cc1`: the TGI in experiment [1] is > 10 µM; in experiment [2], 4.84 µM; in [3], > 10 µM; in [5], > 10 µM; in experiment [6], > 10 µM; in [8], 7.3 µM. Moreover, the TGI in [9] and in experiment [10] was > 10 µM each time.
Regarding `CN(c1cccc(C(=O)O)c1)c1cc(O/N=[N+](\[O-])N(C)C)c([N+](=O)[O-])cc1[N+](=O)[O-]`, the GI50 was > 100 µM in [1]; > 100 µM in experiment [2]; > 100 µM in [3]; > 100 µM in [4]; > 100 µM in experiment [5]; 85.1 µM in [6]. Further, the GI50 in [7] is > 100 µM; in [8], 56.4 µM; in experiment [9], > 100 µM. The TGI in [1], in experiment [2], in experiment [3], in [4], in [5] and in experiment [6] was > 100 µM each time. Also, the TGI in [7], in experiment [8] and in experiment [9] was > 100 µM each time.
`Nc1[nH]nc(Nc2ccccc2)c1-c1nc2ccccc2s1`: the GI50 in experiment [1] was 2.58 µM; in experiment [2], 1.94 µM; in experiment [3], 2.36 µM; in experiment [4], 1.7 µM; in experiment [5] it was 1.18 µM; in experiment [6] it was 2.06 µM. Also, the GI50 in experiment [7] is 2.53 µM; in [8], 1.84 µM; in [10] it was 2.19 µM. Further, the TGI amounted to 7.29 µM in [1]; 4.89 µM in experiment [2]; 5.98 µM in experiment [3]; 3.76 µM in experiment [4]; 3.04 µM in [5]; 4.29 µM in [6]. In addition, the TGI in experiment [7] turned out to be 9.86 µM; in experiment [8], 8.02 µM; in experiment [10], 11.8 µM.
With `COc1ccc([N+](=O)[O-])c2c(NCCCN(C)C)c(C)c(C)nc12`, the TGI in [1], in experiment [2], in experiment [3], in [4], in experiment [5] and in experiment [6] was > 100 µM in each case. Moreover, the TGI in experiment [7] was > 100 µM; in [8], 56.6 µM; in [10], 63.5 µM.
Regarding `C=C1C(=O)OC2CC1C(OC(=O)/C=C/c1ccccc1)C/C(C)=C/CC/C(C)=C/CCC2(C)O` (centres undefined), the TGI in experiment [2] was determined as 3.76 µM; in [3], 6.99 µM; in experiment [4], 2.87 µM; in experiment [5], 2.67 µM; in experiment [6], 15.6 µM; in experiment [7], 5.94 µM. For the same compound, the figures for the TGI in experiment [8], in experiment [9] and in experiment [10] were > 21.6 µM, 2.72 µM and 2.96 µM, respectively.
For `CNc1c2ccccc2nc2occ(Cl)c12`, the GI50 was 17.2 µM in experiment [2]; 37.7 µM in experiment [3]; 24 µM in experiment [4]; 33.8 µM in experiment [5]; 48.7 µM in [6]; 20.9 µM in experiment [7]. For the same compound, the GI50 in [8] is 18.3 µM; in experiment [9], 19.7 µM; in experiment [10], 29.4 µM. Also, the TGI is 79.9 µM in experiment [2]; > 100 µM in [3]; 75.2 µM in experiment [4]; > 100 µM in experiment [5]; > 100 µM in [6]; 79.3 µM in [7]. For the same compound, the TGI in experiment [8] was 50.6 µM; in experiment [9], 50.8 µM; in experiment [10], > 100 µM.
As to `COC1CCCc2c(OC(C)=O)ccc(OC(C)=O)c21` (centres undefined), the TGI in experiment [1], in [4], in [5], in experiment [6], in [8] and in experiment [9] was > 100 µM each time. Besides, the TGI in [10] is > 100 µM.
For `COc1ccc2c(=O)c(-c3cc(OC)c(OC)cc3OC)coc2c1`, the TGI in experiment [1] was > 100 µM; in experiment [3], > 100 µM; in [4], 15.3 µM; in [5], > 100 µM; in experiment [6] it was > 100 µM; in experiment [8] it was > 100 µM. Further, the TGI in [9] was 24.2 µM; in [10], > 100 µM.
